Assay results from ChEMBL document CHEMBL1147963, “Design, synthesis, and antitumor activity of bile acid-polyamine-nucleoside conjugates” (Bioorg Med Chem Lett, 2007).

Tests used:
Assay type in all cases: functional, cell-based
[1] = system: 786-0; test: Cytotoxicity against human 7860 cells after 48 hrs by MTT assay
[2] = system: HeLa; test: Cytotoxicity against human HeLa cells at 100 uM after 48 hrs by MTT assay
[3] = system: HeLa; test: Cytotoxicity against human HeLa cells at 125 uM after 48 hrs by MTT assay

SMILES | IC50 ([1]; Homo sapiens, 786-0, 48 h) | IC50 [2] | IC50 [3] | IC50 ([1]; 786-0)
Cc1cn([C@H]2C[C@H](N=[N+]=[N-])[C@@H](COP(=O)(NCCNCCNC(=O)CCC(C)[C@H]3CC[C@H]4[C@@H]5[C@H](O)C[C@@H]6C[C@H](O)CC[C@]6(C)[C@H]5C[C@H](O)[C@]34C)OC[C@H]3O[C@@H](n4cc(C)c(=O)[nH]c4=O)C[C@@H]3N=[N+]=[N-])O2)c(=O)[nH]c1=O (stereo not given in full) | > 100 µM | > 100 µM | – | –
CCCCCCCCCCCCCCCCCCOP(=O)(NCCCNCCCNC(=O)CCC(C)[C@H]1CC[C@H]2[C@@H]3C(=O)C[C@@H]4CC(=O)CC[C@]4(C)[C@H]3CC(=O)[C@]12C)OC[C@H]1O[C@@H](n2cc(C)c(=O)[nH]c2=O)C[C@@H]1N=[N+]=[N-] (stereo not given in full) | 7.1 µM | 91 µM | – | –
Cc1cn([C@H]2C[C@H](N=[N+]=[N-])[C@@H](CO)O2)c(=O)[nH]c1=O [ZIDOVUDINE] | – | > 100 µM | > 100 µM | –
CCCCCCCCCCCCCCCCCCOP(=O)(NCCNCCNC(=O)CCC(C)[C@H]1CC[C@H]2[C@@H]3C(=O)C[C@@H]4CC(=O)CC[C@]4(C)[C@H]3CC(=O)[C@]12C)OC[C@H]1O[C@@H](n2cc(C)c(=O)[nH]c2=O)C[C@@H]1N=[N+]=[N-] (stereo not given in full) | 42 µM | > 100 µM | – | –
Cc1cn([C@H]2C[C@H](N=[N+]=[N-])[C@@H](COP(=O)(NCCCNCCCNC(=O)CCC(C)[C@H]3CC[C@H]4[C@@H]5C(=O)C[C@@H]6CC(=O)CC[C@]6(C)[C@H]5CC(=O)[C@]34C)OC[C@H]3O[C@@H](n4cc(C)c(=O)[nH]c4=O)C[C@@H]3N=[N+]=[N-])O2)c(=O)[nH]c1=O (stereo not given in full) | > 100 µM | > 100 µM | – | –
CCCCCCCCCCCCCCCCCCOP(=O)(NCCCNCCCNC(=O)CCC(C)[C@H]1CC[C@H]2[C@@H]3CC[C@@H]4C[C@H](O)CC[C@]4(C)[C@H]3C[C@H](O)[C@]12C)OC[C@H]1O[C@@H](n2cc(C)c(=O)[nH]c2=O)C[C@@H]1N=[N+]=[N-] (stereo not given in full) | 6.8 µM | 89 µM | – | –
Cc1cn([C@H]2C[C@H](N=[N+]=[N-])[C@@H](COP(=O)(NCCCNCCCNC(=O)CCC(C)[C@H]3CC[C@H]4[C@@H]5CC[C@@H]6C[C@H](O)CC[C@]6(C)[C@H]5C[C@H](O)[C@]34C)OC[C@H]3O[C@@H](n4cc(C)c(=O)[nH]c4=O)C[C@@H]3N=[N+]=[N-])O2)c(=O)[nH]c1=O (stereo not given in full) | > 100 µM | > 100 µM | – | –
CCCCCCCCCCCCCCCCCCOP(=O)(NCCCNCCCNC(=O)CCC(C)[C@H]1CC[C@H]2[C@@H]3[C@H](O)C[C@@H]4C[C@H](O)CC[C@]4(C)[C@H]3C[C@H](O)[C@]12C)OC[C@H]1O[C@@H](n2cc(C)c(=O)[nH]c2=O)C[C@@H]1N=[N+]=[N-] (stereo not given in full) | 7.2 µM | 94 µM | – | –
Cc1cn([C@H]2C[C@H](N=[N+]=[N-])[C@@H](COP(=O)(NCCNCCNC(=O)CCC(C)[C@H]3CC[C@H]4[C@@H]5C(=O)C[C@@H]6CC(=O)CC[C@]6(C)[C@H]5CC(=O)[C@]34C)OC[C@H]3O[C@@H](n4cc(C)c(=O)[nH]c4=O)C[C@@H]3N=[N+]=[N-])O2)c(=O)[nH]c1=O (stereo not given in full) | > 100 µM | > 100 µM | – | –
CCCCCCCCCCCCCCCCCCOP(=O)(NCCNCCNC(=O)CCC(C)[C@H]1CC[C@H]2[C@@H]3[C@H](O)C[C@@H]4C[C@H](O)CC[C@]4(C)[C@H]3C[C@H](O)[C@]12C)OC[C@H]1O[C@@H](n2cc(C)c(=O)[nH]c2=O)C[C@@H]1N=[N+]=[N-] (stereo in doubt; 2a) | – | – | – | 59 µM
CCCCCCCCCCCCCCCCCCOP(=O)(NCCNCCNC(=O)CCC(C)[C@H]1CC[C@H]2[C@@H]3CC[C@@H]4C[C@H](O)CC[C@]4(C)[C@H]3C[C@H](O)[C@]12C)OC[C@H]1O[C@@H](n2cc(C)c(=O)[nH]c2=O)C[C@@H]1N=[N+]=[N-] (stereo not given in full) | 58 µM | > 100 µM | – | –
CCCCCCCCCCCCCCCCCCO[PH](=O)OC[C@H]1O[C@@H](n2cc(C)c(=O)[nH]c2=O)C[C@@H]1N=[N+]=[N-] (stereo not given in full) | 86 µM | > 100 µM | – | –
Cc1cn([C@H]2C[C@H](N=[N+]=[N-])[C@@H](COP(=O)(NCCNCCNC(=O)CCC(C)[C@H]3CC[C@H]4[C@@H]5CC[C@@H]6C[C@H](O)CC[C@]6(C)[C@H]5C[C@H](O)[C@]34C)OC[C@H]3O[C@@H](n4cc(C)c(=O)[nH]c4=O)C[C@@H]3N=[N+]=[N-])O2)c(=O)[nH]c1=O (stereo not given in full) | > 100 µM | > 100 µM | – | –
